Experimental data from article PMC3654253 (Biochemical pharmacology, 2013).
“Also recorded” adds a separate entry of the source.

Columns and labels:
NaV channels = conditions: cited from earlier work
[1] = system: insect NaV channels (cockroach DUM neurons); assay: Whole-cell patch-clamp, NaV channel currents; format: cell-based, American cockroach (Periplaneta americana)

NC1=N[C@H](O)[C@H]2[C@H]3O[C@]4(O)O[C@@H]([C@@H](O)[C@@]2(N1)[C@@H]4O)[C@]3(O)CO [TTX, tetrodotoxin]
effect on peak INa (NaV channels): reduce peak INa
inhibition of INa by TTX [1]: complete INa inhibition; also recorded: Complete block of INa
